According to patent publication EP0187355A1, “Process for preparing beta-lactam antibiotics” (E.R. Squibb & Sons, Inc., priority 1981, dated 1982):
Structures can show the parent of a compound that is named as a salt.

Legend:
Test in all cases: MIC, agar dilution
Type in all cases: cell-based
[1] = test system: Proteus rettgeri, 8479; details: K-10 agar, 10^4 CFU, 37°C, 18 hours
Method: (§1) The following methodology is used to determine the minimum inhibitory concentration (hereinafter referred to as MIC) of the […] of this invention.
(§2) The test organisms are grown in approximately 15-20 ml of Antibiotic Assay broth (Difco) by inoculating (in tubes) the broth with a loopful of the organism from a BHI (Difco) agar slant. The inoculated tubes are incubated at 37°C for 18 to 20 hours. These cultures are assumed to contain 10^9 colony forming units (hereinafter CFU) per milliliter. The cultures are diluted 1:100 to give a final inoculum level of 10^4 CFU; dilutions are made with K-10 broth^*.
(§3) The compounds are dissolved in the appropriate diluent at a concentration of 1000 µg/ml. Twofold dilutions are made in K-10 broth resulting in a range from 1000 µg/ml to 0.5 µg/ml. 1.5 ml of each dilution is placed into individual square petri dishes to which 13.5 ml of K-10 agar^** is added. The final drug concentration in the agar ranges from 100 µg/ml to 0.05 µg/ml. Organism growth control plates containing agar only are prepared and inoculated before and after the test plates. The organisms are applied to the agar surface of each plate with the Denley Multipoint Inoculator (which delivers approximately 0.001 ml of each organism) resulting in a final inoculum level of 10^4 CFU on the agar surface.
(§4) The plates are incubated at 37 °C for 18 hours and the MIC's are determined. The MIC is the lowest concentration of compound inhibiting growth of the organism.
(§5) The tables that follow are tabulated results obtained when the B-lactams of this invention are tested against various organisms. The number following each organism refers to the number of the organism in the collection of E. R. Squibb & Sons,.Inc., Princeton, New Jersey. […] The symbol "N.T." means not tested.

[2] = test system: Enterobacter aerogenes, 10078; details: Enterobacter aerogenes, 10078, K-10 agar, 10^4 CFU, 37°C, 18 hours
Method: as §1, §2, §3, §4, §5

[3] = test system: Pseudomonas aeruginosa, 9545; details: K-10 agar, 10^4 CFU, 37°C
Method: as §1, §2, §3, §4, §5

[4] = test system: Klebsiella pneumoniae, 9527; details: K-10 agar, 10^4 CFU, 37°C
Method: as §1, §2, §3, §4, §5

[5] = test system: Proteus mirabilis, 3855; details: K-10 agar, 10^4 CFU, 37°C
Method: as §1, §2, §3, §4, §5

[6] = test system: Escherichia coli, 10896; details: K-10 agar, 10^4 CFU, 37°C, 18 hours
Method: as §1, §2, §3, §4, §5

[7] = test system: Salmonella typhosa, 1195; details: K-10 agar, 10^4 CFU, 37°C
Method: as §1, §2, §3, §4, §5

[8] = test system: Serratia marcescens, 9783; details: K-10 agar, 10^4 CFU, 37°C
Method: as §1, §2, §3, §4, §5

[9] = test system: Streptococcus faecalis, 9011; details: Streptococcus faecalis, 9011, K-10 agar, 10^4 CFU, 37°C, 18 hours
Method: as §1, §2, §3, §4, §5

[10] = test system: Escherichia coli, 10857; details: K-10 agar, 10^4 CFU, 37°C
Method: as §1, §2, §3, §4, §5

[11] = test system: Escherichia coli, 10909; details: K-10 agar, 10^4 CFU, 37°C, 18 hours
Method: as §1, §2, §3, §4, §5

[12] = test system: Staphylococcus aureus, 1276; details: Staphylococcus aureus, 1276, K-10 agar, 10^4 CFU, 37°C, 18 hours
Method: as §1, §2, §3, §4, §5

[13] = test system: Staphylococcus aureus, 2399; details: Staphylococcus aureus, 2399, K-10 agar, 10^4 CFU, 37°C, 18 hours
Method: as §1, §2, §3, §4, §5

[14] = test system: Citrobacter freundii, 9518; details: K-10 agar, 10^4 CFU, 37°C, 18 hours
Method: as §1, §2, §3, §4, §5

[15] = test system: Acinetobacter calcoaceticus, 8333; details: K-10 agar, 10^4 CFU, 37°C
Method: as §1, §2, §3, §4, §5

[16] = test system: Proteus vulgaris, 9416; details: K-10 agar, 10^4 CFU, 37°C, 18 hours
Method: as §1, §2, §3, §4, §5

[17] = test system: Escherichia coli, 8294; details: K-10 agar, 10^4 CFU, 37°C
Method: as §1, §2, §3, §4, §5

[18] = test system: Staphylococcus aureus, 2400; details: Staphylococcus aureus, 2400, K-10 agar, 10^4 CFU, 37°C, 18 hours
Method: as §1, §2, §3, §4, §5

[19] = test system: Shigella sonnei, 8449; details: K-10 agar, 10^4 CFU, 37°C
Method: as §1, §2, §3, §4, §5

[20] = test system: Staphylococcus aureus, 10165; details: Staphylococcus aureus, 10165, K-10 agar, 10^4 CFU, 37°C, 18 hours
Method: as §1, §2, §3, §4, §5

[21] = test system: Klebsiella aerogenes, 10440; details: K-10 agar, 10^4 CFU, 37°C, 18 hours
Method: as §1, §2, §3, §4, §5

[22] = test system: Pseudomonas aeruginosa, 8329; details: K-10 agar, 10^4 CFU, 37°C, 18 hours
Method: as §1, §2, §3, §4, §5

[23] = test system: Enterobacter cloacae, 8236; details: K-10 agar, 10^4 CFU, 37°C
Method: as §1, §2, §3
(§6) The MIC is the lowest concentration of compound inhibiting growth of the organism.
(§7) The number following each organism refers to the number of the organism in the collection of E. R. Squibb & Sons,.Inc., Princeton, New Jersey. […] The symbol "N.T." means not tested.

[24] = test system: Micrococcus luteus, 2495; details: K-10 agar, 10^4 CFU, 37°C
Method: as §1, §2, §3, §6, §7

[25] = test system: Streptococcus agalactiae, 9287; details: K-10 agar, 10^4 CFU, 37°C
Method: as §1, §2, §3, §6, §7

Structure (SMILES): CON=C(C(=O)NC1C(=O)N(S(=O)(=O)O)C1C)c1csc(N)n1 (stereo not drawn) [Example 9, [3S-[3α(Z),4α]]-3-[[2-Amino-4-thiazolyl)-methoxyimino)acetyl]amino-4-methyl-2-oxo-1-azetidinesulfonic acid, potassium salt]
- M.I.C. [1]: <0.05 µg/mL
- M.I.C. ([2]; potassium salt): 0.2 µg/mL
- M.I.C. ([3]; 18 hours, potassium salt): 0.4 µg/mL
- M.I.C. ([4]; 18 hours, potassium salt): <0.05 µg/mL
- M.I.C. ([5]; 18 hours, potassium salt): <0.05 µg/mL
- M.I.C. [6]: 0.1 µg/mL
- M.I.C. ([7]; 18 hours): <0.05 µg/mL
- M.I.C. ([8]; 18 hours, potassium salt): 0.2 µg/mL
- M.I.C. [9]: - (A dash (-) in the tables means that the compound tested did not show activity against the particular organism at 100 µg/ml)
- M.I.C. ([10]; 18 hours): <0.05 µg/mL
- M.I.C. [11]: <0.05 µg/mL
- M.I.C. [12]: 100 µg/mL
- M.I.C. ([13]; potassium salt): 50 µg/mL
- M.I.C. [14]: 0.1 µg/mL
- M.I.C. ([15]; 18 hours, potassium salt): 25 µg/mL
- M.I.C. [16]: <0.05 µg/mL
- M.I.C. ([17]; 18 hours): 0.1 µg/mL
- M.I.C. [18]: 50 µg/mL
- M.I.C. ([19]; 18 hours): 0.1 µg/mL
- M.I.C. [20]: - (A dash (-) in the tables means that the compound tested did not show activity against the particular organism at 100 µg/ml)
- M.I.C. [21]: 0.2 µg/mL
- M.I.C. [22]: 100 µg/mL
- M.I.C. ([23]; 18 hours, potassium salt): 0.1 µg/mL
- M.I.C. ([24]; 18 hours, potassium salt): 6.3 µg/mL
- M.I.C. ([25]; 18 hours, potassium salt): 1.6 µg/mL

Structure (SMILES): CC1C(NC(=O)C(NC(=O)C(N)=O)c2cccs2)C(=O)N1S(=O)(=O)O (racemic) [Example 14, [3S-[3α(±),4β]]-3-[[[(aminooxoacetyl)amino]-2-thienylacetyl]amino]-4-methyl-2-oxo-1-azetidine-sulfonic acid, potassium salt]
- MIC ([1]; Providencia rettgeri, read-out: M.I.C.): 0.8 µg/mL
- MIC ([2]; Klebsiella aerogenes, 10078, 18 h, read-out: M.I.C.): 3.1 µg/mL
- MIC ([3]; Pseudomonas aeruginosa, 9545, 18 h, read-out: M.I.C.): 3.1 µg/mL
- MIC ([4]; Klebsiella pneumoniae, 9527, 18 h, read-out: M.I.C.): 1.6 µg/mL
- MIC ([5]; Proteus mirabilis, 3855, 18 h, read-out: M.I.C.): 0.8 µg/mL
- MIC [6]: 1.6 µg/mL
- MIC ([7]; Salmonella enterica, TYPHOSA, 18 h): 0.8 µg/mL
- MIC ([8]; Serratia marcescens, 9783, 18 h, read-out: M.I.C.): 3.1 µg/mL
- MIC ([9]; Enterococcus faecalis, read-out: M.I.C.): > 100 µg/mL
- MIC ([10]; Escherichia coli, 10857, 18 h): 0.4 µg/mL
- MIC [11]: 0.8 µg/mL
- MIC ([12]; read-out: M.I.C.): 50 µg/mL
- MIC ([13]; Staphylococcus aureus, 2399, 18 h, read-out: M.I.C.): 50 µg/mL
- MIC ([14]; read-out: M.I.C.): 1.6 µg/mL
- MIC ([15]; Acinetobacter calcoaceticus, 8333, 18 h, read-out: M.I.C.): 100 µg/mL
- MIC ([16]; read-out: M.I.C.): 0.8 µg/mL
- MIC ([17]; Escherichia coli, 8294, 18 h): 1.6 µg/mL
- MIC ([18]; read-out: M.I.C.): 100 µg/mL
- MIC ([19]; Shigella sonnei, 8449, 18 h): 0.8 µg/mL
- MIC ([20]; read-out: M.I.C.): > 100 µg/mL
- MIC ([21]; read-out: M.I.C.): 3.1 µg/mL
- MIC ([22]; read-out: M.I.C.): 100 µg/mL
- MIC ([23]; Enterobacter cloacae, 8236, 18 h): 3.1 µg/mL
- MIC ([24]; Micrococcus luteus, 2495, 18 h, read-out: M.I.C.): 12.5 µg/mL
- MIC ([25]; Streptococcus agalactiae, 9287, 18 h, read-out: M.I.C.): 3.1 µg/mL
